According to ChEMBL document CHEMBL4665836, “Overcoming β-Lactam resistance in Pseudomonas aeruginosa using non-canonical tobramycin-based antibiotic adjuvants” (2020):

Legend:
Assay type in all cases: functional
Pseudomonas aeruginosa [1] = test: Potentiation of aztreonam-induced antibacterial activity against wild type Pseudomonas aeruginosa PAO1 assessed as fold reduction in aztreonam MIC at 8 uM
Pseudomonas aeruginosa [2] = test: Potentiation of imipenem-induced antibacterial activity against carbapenem-resistant Pseudomonas aeruginosa 107092 clinical isolate assessed as fold reduction in imipenem MIC at 8 uM in presence of beta-lactamase inhibitor, rele-bactam
Pseudomonas aeruginosa [3] = test: Potentiation of aztreonam-induced antibacterial activity against carbapenem-resistant Pseudomonas aeruginosa 107092 clinical isolate assessed as fold reduction in aztreonam MIC at 8 uM in presence of beta-lactamase inhibitor, avi-bactam
Pseudomonas aeruginosa [4] = test: Potentiation of aztreonam-induced antibacterial activity against carbapenem-resistant Pseudomonas aeruginosa 101885 clinical isolate assessed as aztreonam MIC at 8 uM by checkerboard assay (reference value: 16 ug/ml)
Pseudomonas aeruginosa [5] = test: Potentiation of imipenem-induced antibacterial activity against wild type Pseudomonas aeruginosa PAO1 assessed as fold reduction in imipenem MIC at 8 uM
Pseudomonas aeruginosa [6] = test: Potentiation of piperacillin-induced antibacterial activity against wild type Pseudomonas aeruginosa PAO1 assessed as piperacillin MIC at 8 uM by checkerboard assay (reference value: 8 ug/ml)
Pseudomonas aeruginosa [7] = test: Potentiation of aztreonam-induced antibacterial activity against carbapenem-resistant Pseudomonas aeruginosa 264-104354 clinical isolate assessed as aztreonam MIC at 8 uM by checkerboard assay (reference value: 32 ug/ml)
Pseudomonas aeruginosa [8] = test: Potentiation of imipenem-induced antibacterial activity against carbapenem-resistant Pseudomonas aeruginosa 100036 clinical isolate assessed as imipenem MIC at 8 uM by checkerboard assay (reference value: 8 ug/ml)
Pseudomonas aeruginosa [9] = test: Potentiation of imipenem-induced antibacterial activity against carbapenem and colistin-resistant Pseudomonas aeruginosa 114228 clinical isolate assessed as imipenem MIC at 8 uM by checkerboard assay (reference value: 8 ug/ml)
Pseudomonas aeruginosa [10] = test: Potentiation of aztreonam-induced antibacterial activity against carbapenem-resistant Pseudomonas aeruginosa 108590 clinical isolate assessed as aztreonam MIC at 8 uM by checkerboard assay (reference value: 32 ug/ml)
Pseudomonas aeruginosa [11] = test: Potentiation of ceftazidime-induced antibacterial activity against carbapenem-resistant Pseudomonas aeruginosa 109084 clinical isolate assessed as fold reduction in ceftazidime MIC at 8 uM in presence of beta-lactamase inhibitor, avi-bactam
Pseudomonas aeruginosa [12] = test: Potentiation of ceftazidime-induced antibacterial activity against carbapenem-resistant Pseudomonas aeruginosa 86052 clinical isolate assessed as ceftazidime MIC at 8 uM by checkerboard assay (reference value: 64 ug/ml)
Pseudomonas aeruginosa [13] = test: Potentiation of ceftazidime-induced antibacterial activity against wild type Pseudomonas aeruginosa PAO1 assessed as fold reduction in ceftazidime MIC at 8 uM
Pseudomonas aeruginosa [14] = test: Potentiation of imipenem-induced antibacterial activity against carbapenem-resistant Pseudomonas aeruginosa PAO750 harboring mexAB-oprM/mexCD-oprJ/mexEF-oprN/mexJK/mexXY/opmH efflux deficient mutant assessed as imipenem MIC at 8 uM by checkerboard assay (reference value: 4 ug/ml)
Pseudomonas aeruginosa [15] = test: Potentiation of ceftazidime-induced antibacterial activity against wild type Pseudomonas aeruginosa PAO1 assessed as ceftazidime MIC at 8 uM by checkerboard assay (reference value: 2 ug/ml)
Pseudomonas aeruginosa [16] = test: Potentiation of imipenem-induced antibacterial activity against carbapenem-resistant Pseudomonas aeruginosa 108590 clinical isolate assessed as imipenem MIC at 8 uM by checkerboard assay (reference value: 16 ug/ml)
Pseudomonas aeruginosa [17] = test: Potentiation of ceftazidime-induced antibacterial activity against carbapenem-resistant Pseudomonas aeruginosa 259-96918 clinical isolate expressing metallo-beta-lactamase assessed as ceftazidime MIC at 8 uM by checkerboard assay (reference value: 512 ug/ml)
Pseudomonas aeruginosa [18] = test: Potentiation of aztreonam-induced antibacterial activity against carbapenem-resistant Pseudomonas aeruginosa 88949 clinical isolate assessed as fold reduction in aztreonam MIC at 8 uM in presence of beta-lactamase inhibitor, avi-bactam
Pseudomonas aeruginosa [19] = test: Potentiation of ceftazidime-induced antibacterial activity against carbapenem and colistin-resistant Pseudomonas aeruginosa 101243 clinical isolate assessed as ceftazidime MIC at 8 uM by checkerboard assay (reference value: 64 ug/ml)
Pseudomonas aeruginosa [20] = test: Potentiation of imipenem-induced antibacterial activity against carbapenem-resistant Pseudomonas aeruginosa 108590 clinical isolate assessed as fold reduction in imipenem MIC at 8 uM in presence of beta-lactamase inhibitor, rele-bactam
Pseudomonas aeruginosa [21] = test: Potentiation of imipenem-induced antibacterial activity against carbapenem-resistant Pseudomonas aeruginosa 109084 clinical isolate assessed as imipenem MIC at 8 uM by checkerboard assay (reference value: 16 ug/ml)
Pseudomonas aeruginosa [22] = test: Potentiation of aztreonam-induced antibacterial activity against carbapenem-resistant Pseudomonas aeruginosa 100036 clinical isolate assessed as aztreonam MIC at 8 uM by checkerboard assay (reference value: 16 ug/ml)
Pseudomonas aeruginosa [23] = test: Potentiation of ceftazidime-induced antibacterial activity against carbapenem-resistant Pseudomonas aeruginosa 262-101856 clinical isolate assessed as ceftazidime MIC at 8 uM by checkerboard assay (reference value: 16 ug/ml)
Pseudomonas aeruginosa [24] = test: Potentiation of ceftazidime-induced antibacterial activity against carbapenem-resistant Pseudomonas aeruginosa 88949 clinical isolate assessed as fold reduction in ceftazidime MIC at 8 uM in presence of beta-lactamase inhibitor, avi-bactam
Pseudomonas aeruginosa [25] = test: Potentiation of ceftazidime-induced antibacterial activity against carbapenem-resistant Pseudomonas aeruginosa 86052 clinical isolate assessed as fold reduction in ceftazidime MIC at 8 uM in presence of beta-lactamase inhibitor, avi-bactam
Pseudomonas aeruginosa [26] = test: Antibacterial activity against Pseudomonas aeruginosa PAO750 harboring mexAB-oprM/mexCD-oprJ/mexEF-oprN/mexJK/mexXY/opmH efflux deficient mutant
Pseudomonas aeruginosa [27] = test: Potentiation of ceftazidime-induced antibacterial activity against carbapenem-resistant Pseudomonas aeruginosa 108590 clinical isolate assessed as ceftazidime MIC at 8 uM by checkerboard assay (reference value: 32 ug/ml)
Pseudomonas aeruginosa [28] = test: Potentiation of ceftazidime-induced antibacterial activity against carbapenem and colistin-resistant Pseudomonas aeruginosa 91433 clinical isolate assessed as ceftazidime MIC at 8 uM by checkerboard assay (reference value: 4 ug/ml)
Pseudomonas aeruginosa [29] = test: Potentiation of ceftazidime-induced antibacterial activity against carbapenem-resistant Pseudomonas aeruginosa 107092 clinical isolate assessed as fold reduction in ceftazidime MIC at 8 uM in presence of beta-lactamase inhibitor, avi-bactam
Pseudomonas aeruginosa [30] = test: Potentiation of imipenem-induced antibacterial activity against carbapenem-resistant Pseudomonas aeruginosa 259-96918 clinical isolate expressing MBL assessed as imipenem MIC at 8 uM by checkerboard assay (reference value: 64 ug/ml)
Pseudomonas aeruginosa [31] = test: Potentiation of aztreonam-induced antibacterial activity against carbapenem-resistant Pseudomonas aeruginosa PAO200 harboring mexAB-oprM efflux deficient mutant assessed as aztreonam MIC at 8 uM by checkerboard assay (reference value: 0.25 ug/ml)
Pseudomonas aeruginosa [32] = test: Potentiation of ceftazidime-induced antibacterial activity against carbapenem-resistant Pseudomonas aeruginosa 88949 clinical isolate assessed as ceftazidime MIC at 8 uM by checkerboard assay (reference value: 64 ug/ml)

| SMILES | fold change (FC) (Pseudomonas aeruginosa [1]) | fold change (FC) (Pseudomonas aeruginosa [2]) | fold change (FC) (Pseudomonas aeruginosa [3]) | MIC (Pseudomonas aeruginosa [4]) [µg/mL] | fold change (FC) (Pseudomonas aeruginosa [5]) | MIC (Pseudomonas aeruginosa [6]) [µg/mL] | MIC (Pseudomonas aeruginosa [8]) [µg/mL] | MIC (Pseudomonas aeruginosa [9]) [µg/mL] | fold change (FC) (Pseudomonas aeruginosa [11]) | fold change (FC) (Pseudomonas aeruginosa [13]) | MIC (Pseudomonas aeruginosa [14]) [µg/mL] | MIC (Pseudomonas aeruginosa [16]) [µg/mL] | fold change (FC) (Pseudomonas aeruginosa [18]) | fold change (FC) (Pseudomonas aeruginosa [20]) | MIC (Pseudomonas aeruginosa [21]) [µg/mL] | fold change (FC) (Pseudomonas aeruginosa [24]) | fold change (FC) (Pseudomonas aeruginosa [25]) | MIC (Pseudomonas aeruginosa [26]) [µg/mL] | fold change (FC) (Pseudomonas aeruginosa [29]) | MIC (Pseudomonas aeruginosa [30]) [µg/mL] | also measured |
| --- | --- | --- | --- | --- | --- | --- | --- | --- | --- | --- | --- | --- | --- | --- | --- | --- | --- | --- | --- | --- | --- |
| NC[C@H]1O[C@H](O[C@H]2[C@H](OCCCCc3cn(CCCCO[C@@H]4[C@@H](O)[C@H](N)C[C@H](N)[C@H]4O[C@H]4O[C@H](CN)[C@@H](O)C[C@H]4N)nn3)[C@@H](O)[C@H](N)C[C@@H]2N)[C@H](N)C[C@@H]1O.O=C(O)C(F)(F)F.O=C(O)C(F)(F)F.O=C(O)C(F)(F)F.O=C(O)C(F)(F)F.O=C(O)C(F)(F)F.O=C(O)C(F)(F)F.O=C(O)C(F)(F)F.O=C(O)C(F)(F)F | 2 | 16 | 16 | 4 | 2 | 8 | 4 | 4 | 16 | 2 | 2 | 8 | 16 | 16 | 16 | 16 | 16 | 128 | 16 | 64 | MIC (Pseudomonas aeruginosa [7]): 8 µg/mL; MIC (Pseudomonas aeruginosa [10]): 16 µg/mL; MIC (Pseudomonas aeruginosa [12]): 64 µg/mL; MIC (Pseudomonas aeruginosa [15]): 0.5 µg/mL; MIC (Pseudomonas aeruginosa [17]): 128 µg/mL; MIC (Pseudomonas aeruginosa [19]): 32 µg/mL; MIC (Pseudomonas aeruginosa [22]): 4 µg/mL; MIC (Pseudomonas aeruginosa [23]): 16 µg/mL; MIC (Pseudomonas aeruginosa [27]): 32 µg/mL; MIC (Pseudomonas aeruginosa [28]): 0.5 µg/mL; MIC (Pseudomonas aeruginosa [31]): 0.06 µg/mL; MIC (Pseudomonas aeruginosa [32]): 64 µg/mL |
| Cl.Cl.Cl.Cl.Cl.NC[C@H]1O[C@H](O[C@H]2[C@H](OCCCCCCCCCCCCN3CCN(c4cc5c(cc4F)c(=O)c(C(=O)O)cn5C4CC4)CC3)[C@@H](O)[C@H](N)C[C@@H]2N)[C@H](N)C[C@@H]1O | 2 | 16 | 16 | 4 | 2 | 2 | 4 | 1 | 16 | 2 | 2 | 0.5 | 16 | 16 | 8 | 16 | 16 | 2 | 16 | 16 | MIC (Pseudomonas aeruginosa [7]): 16 µg/mL; MIC (Pseudomonas aeruginosa [10]): 0.13 µg/mL; MIC (Pseudomonas aeruginosa [12]): 4 µg/mL; MIC (Pseudomonas aeruginosa [15]): 0.25 µg/mL; MIC (Pseudomonas aeruginosa [17]): 128 µg/mL; MIC (Pseudomonas aeruginosa [19]): 4 µg/mL; MIC (Pseudomonas aeruginosa [22]): 8 µg/mL; MIC (Pseudomonas aeruginosa [23]): 4 µg/mL; MIC (Pseudomonas aeruginosa [27]): 1 µg/mL; MIC (Pseudomonas aeruginosa [28]): 0.5 µg/mL; MIC (Pseudomonas aeruginosa [31]): 0.03 µg/mL; MIC (Pseudomonas aeruginosa [32]): 32 µg/mL |
| N=C(N)NC[C@H]1O[C@H](O[C@H]2[C@H](OCCCCCCCCCCCCN3CCN(c4cc5c(cc4F)c(=O)c(C(=O)O)cn5C4CC4)CC3)[C@@H](O[C@H]3O[C@H](CO)[C@@H](O)[C@H](NC(=N)N)[C@H]3O)[C@H](NC(=N)N)C[C@@H]2NC(=N)N)[C@H](NC(=N)N)C[C@@H]1O.O=C(O)C(F)(F)F.O=C(O)C(F)(F)F.O=C(O)C(F)(F)F.O=C(O)C(F)(F)F.O=C(O)C(F)(F)F.O=C(O)C(F)(F)F | 2 | 16 | 16 | 4 | 2 | 8 | 4 | 1 | 16 | 2 | 1 | 4 | 16 | 16 | 16 | 16 | 16 | 16 | 16 | 64 | MIC (Pseudomonas aeruginosa [7]): 32 µg/mL; MIC (Pseudomonas aeruginosa [10]): 2 µg/mL; MIC (Pseudomonas aeruginosa [12]): 32 µg/mL; MIC (Pseudomonas aeruginosa [15]): 0.25 µg/mL; MIC (Pseudomonas aeruginosa [17]): 512 µg/mL; MIC (Pseudomonas aeruginosa [19]): 16 µg/mL; MIC (Pseudomonas aeruginosa [22]): 16 µg/mL; MIC (Pseudomonas aeruginosa [23]): 16 µg/mL; MIC (Pseudomonas aeruginosa [27]): 2 µg/mL; MIC (Pseudomonas aeruginosa [28]): 4 µg/mL; MIC (Pseudomonas aeruginosa [31]): 0.06 µg/mL; MIC (Pseudomonas aeruginosa [32]): 32 µg/mL |
| NC[C@H]1O[C@H](O[C@H]2[C@H](OCCCCCCCCN3CCCNCCNCCCNCC3)[C@@H](O)[C@H](N)C[C@@H]2N)[C@H](N)C[C@@H]1O.O=C(O)C(F)(F)F.O=C(O)C(F)(F)F.O=C(O)C(F)(F)F.O=C(O)C(F)(F)F.O=C(O)C(F)(F)F.O=C(O)C(F)(F)F.O=C(O)C(F)(F)F.O=C(O)C(F)(F)F | 2 | 16 | 16 | 4 | 2 | 2 | 8 | 8 | 16 | 2 | 4 | 16 | 16 | 16 | 16 | 16 | 16 | > 128 | 16 | 32 | MIC (Pseudomonas aeruginosa [7]): 16 µg/mL; MIC (Pseudomonas aeruginosa [10]): 8 µg/mL; MIC (Pseudomonas aeruginosa [12]): 64 µg/mL; MIC (Pseudomonas aeruginosa [15]): 0.5 µg/mL; MIC (Pseudomonas aeruginosa [17]): 128 µg/mL; MIC (Pseudomonas aeruginosa [19]): 8 µg/mL; MIC (Pseudomonas aeruginosa [22]): 8 µg/mL; MIC (Pseudomonas aeruginosa [23]): 16 µg/mL; MIC (Pseudomonas aeruginosa [27]): 16 µg/mL; MIC (Pseudomonas aeruginosa [28]): 2 µg/mL; MIC (Pseudomonas aeruginosa [31]): 0.06 µg/mL; MIC (Pseudomonas aeruginosa [32]): 64 µg/mL |
| NC[C@H]1O[C@H](O[C@H]2[C@H](OCCCCCCCCN3CCCNCCNCCCNCC3)[C@@H](O[C@H]3O[C@H](CO)[C@@H](O)[C@H](N)[C@H]3O)[C@H](N)C[C@@H]2N)[C@H](N)C[C@@H]1O.O=C(O)C(F)(F)F.O=C(O)C(F)(F)F.O=C(O)C(F)(F)F.O=C(O)C(F)(F)F.O=C(O)C(F)(F)F.O=C(O)C(F)(F)F.O=C(O)C(F)(F)F.O=C(O)C(F)(F)F.O=C(O)C(F)(F)F | 2 | 16 | 16 |  | 2 | 2 | 8 | 8 | 16 | 2 | 2 | 16 | 16 | 16 | 8 | 16 | 16 | 128 | 16 | 64 |  |
